From US20250145561A1, “4-SUBSTITUTED-PHENYL ACETAMIDES AND ARYLUREAS AS AGONISTS FOR THE ORPHAN RECEPTOR GPR88” (RESEARCH TRIANGLE INSTITUTE, priority 2022, published 2025)

Assays:
[1] = rats, intraperitoneally, dose-dependent; cited from earlier work
[2] = rats, intraperitoneally; cited from earlier work
GPR88 = target: T1, GPR88 (Homo sapiens, UniProt Q9GZN0); experiment: Lance Ultra TR-FRET cAMP assay using stable PPLS-HA-GPR88 CHO cells; assay type: cell-based; conditions: for Emax: CHO
T1 construct: expressed in transfected cells
Description: The compounds of the present disclosure offer potent agonism to the orphan receptor GPR88. As such, the compounds of the present disclosure provide therapeutic potential for the treatment of striatal associated disorders such as Parkinson's disease, schizophrenia, and alcohol addiction. All compounds were evaluated for the GPR88 agonist activity in the inventors' previously established in vitro GPR88 Lance TR-FRET cAMP assay. See, supra, Jin et al., 2018, Rahman et al., 2020, and Rahman et al., 2021. As will be described, the TR-FRET signal was converted to fmol cAMP by interpolating from the standard cAMP curve. Fmol cAMP was plotted against the log of compound concentration and data were fit to a three-parameter logistic curve to generate maximum response (Emax) and EC50 values.
Lance™ Ultra cAMP assay using stable PPLS-HA-GPR88 CHO cells. All cAMP assays were performed using the inventors' previously published methods. […] ACS Chemical Neuroscience 2016, 7, 1418-1432, which is incorporated by reference herein with regard to such teaching. Stimulation buffer containing 1× Hank's Balanced Salt Solution (HBSS), 5 mM HEPES, 0.1% BSA stabilizer, and 0.5 mM final IBMX was prepared and titrated to pH 7.4 at room temperature. Serial dilutions of the test compounds (5 μL) and 300 nM forskolin (5 μL), both prepared at 4× the desired final concentration in 2% DMSO/stimulation buffer, were added to a 96-well white ½ area microplate (PerkinElmer). A cAMP standard curve was prepared at 4× the desired final concentration in stimulation buffer and 5 μL was added to the assay plate. Stable PPLS-HA-GPR88 CHO cells were lifted with versene and spun at 270 g for 10 minutes. The cell pellet was resuspended in stimulation buffer and 4,000 cells (10 μL) were added to each well except wells containing the cAMP standard curve. After incubating for 30 min at room temperature, Eu-cAMP tracer and uLIGHT-anti-cAMPworking solutions were added per the manufacturer's instructions. After incubation at room temperature for 1 hour, the TR-FRET signal (ex 337 nm) was read on a CLARIOstar multimode plate reader (BMG Biotech, Cary, NC).
Data Analysis. The TR-FRET signal (665 nm) was converted to fmol cAMP by interpolating from the standard cAMP curve. Fmol cAMP was plotted against the log of compound concentration and data were fit to a three-parameter logistic curve to generate EC50 values (Prism, version 6.0, GraphPad Software, Inc., San Diego, CA).

T1 sequence (Q9GZN0 whole entry): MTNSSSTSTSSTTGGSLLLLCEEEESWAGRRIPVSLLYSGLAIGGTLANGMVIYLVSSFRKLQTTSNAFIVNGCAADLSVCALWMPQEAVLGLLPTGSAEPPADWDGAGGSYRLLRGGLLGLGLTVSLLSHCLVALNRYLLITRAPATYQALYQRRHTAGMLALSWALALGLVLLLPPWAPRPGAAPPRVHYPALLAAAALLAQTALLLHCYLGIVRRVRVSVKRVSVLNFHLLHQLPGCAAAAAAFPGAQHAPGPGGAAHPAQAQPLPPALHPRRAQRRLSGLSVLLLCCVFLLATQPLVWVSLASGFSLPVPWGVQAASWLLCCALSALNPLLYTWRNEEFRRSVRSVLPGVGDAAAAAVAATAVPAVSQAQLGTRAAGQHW

COCc1ccc(-c2ccc(N(C[C@@H](N)[C@@H](C)OC)C(=O)[C@@H]3C[C@H]3c3ccccn3)cc2)cc1 [RTI-13951-33]
alcohol intake [1]: significantly reduced | alcohol self-administration [1]: significantly reduced | sucrose self-administration [2]: without effects

CCCC(C)COc1ccc([C@@H](CO)C(=O)N[C@H](CC)c2ccccc2)cc1 (stereo partly drawn) [Compound 17, (2S)-3-Hydroxy-2-{4-[(2-methylpentyl)oxy]phenyl}-N-[(1 R)-1-phenylpropyl]propenamide]
Emax (GPR88): 102 ± 8%

COc1ccc(-c2ccc(N(C[C@@H](N)[C@@H](C)OC)C(=O)N[C@@H](C)c3ccccc3)cc2)cc1 [Compound 57, 3-[(2R,3R)-2-Amino-3-methoxybutyl]-1-[(1 S)-1-phenylethyl]-3-{4′-methoxy-[1,1′-biphenyl]-4-yl}urea]
Emax (GPR88): 101 ± 3% | EC50 (GPR88; stable PPLS-HA-GPR88 CHO cells, value in parentheses beside pEC50): 891 nM

CCCC(C)COc1ccc([C@@H](CO)C(=O)N[C@H](C)c2ccc(C)cc2)cc1 (stereo partly drawn) [Compound 11, (2S)-3-Hydroxy-2-{4-[(2-methylpentyl)oxy]phenyl}-N-[(1 R)-1-(4-methylphenyl)ethyl]propenamide]
Emax (GPR88): 102 ± 7%
